3 compounds from US6391872B1, “Indazole bioisostere replacement of catechol in therapeutically active compounds” (Pfizer Inc, priority 1997, dated 2002) can be followed below.

For the compound `CCc1nn(C2CCCC2)c2cc(C3(C#N)CCC(=O)CC3)ccc12` [Example 6, 1-(1-Cyclopentyl-3-ethyl-1H-indazol-6-yl)-4-oxo-cyclohexanecarbonitrile], the melting point lay within 81 to 89 °C.

`CCc1nn(-c2ccc(F)cc2)c2cc(Br)ccc12` [Example 24, 6-Bromo-3-ethyl-1-(4-fluorophenyl)-1H-indazole] had a melting point of 72 to 73 °C.

`CCc1nn(-c2ccc(F)cc2)c2cc(C3=CCC(C(=O)O)CC3)ccc12` (stereo not drawn) [Example 28, 4-(3-ethyl-1-(4-fluorophenyl)-1H-indazol-6-yl)-cyclohex-3-ene-carboxylic acid] came in with a melting point of 214 to 216 °C.
